From ChEMBL document CHEMBL1201862, “PubChem BioAssay data set” (2004)
The source made the active and inactive calls.

Columns and labels:
[1] = growth suppression of PTEN-null colon cells, dose response, cell-based, HCT116 PTEN knockout (AID 1047); assay type: functional;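 further: HCT116 colon tumor cells with PTEN knocked out; cells exposed to compound for 60 hours before readout; potency for loss of cell viability measured by luminescence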
[2] = growth suppression of beta-catenin-knockout colon cells, dose response, cell-based, HCT116, human colon tumor (AID 1045); assay type: functional;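 further: HCT116 colon tumor cells with beta catenin knocked out; cells exposed to compound for 60 hours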
[3] = target: T1, DNA repair protein RAD52 homolog (Homo sapiens, UniProt P43351); assay type: functional, biochemical
T1 sequence (P43351 whole entry): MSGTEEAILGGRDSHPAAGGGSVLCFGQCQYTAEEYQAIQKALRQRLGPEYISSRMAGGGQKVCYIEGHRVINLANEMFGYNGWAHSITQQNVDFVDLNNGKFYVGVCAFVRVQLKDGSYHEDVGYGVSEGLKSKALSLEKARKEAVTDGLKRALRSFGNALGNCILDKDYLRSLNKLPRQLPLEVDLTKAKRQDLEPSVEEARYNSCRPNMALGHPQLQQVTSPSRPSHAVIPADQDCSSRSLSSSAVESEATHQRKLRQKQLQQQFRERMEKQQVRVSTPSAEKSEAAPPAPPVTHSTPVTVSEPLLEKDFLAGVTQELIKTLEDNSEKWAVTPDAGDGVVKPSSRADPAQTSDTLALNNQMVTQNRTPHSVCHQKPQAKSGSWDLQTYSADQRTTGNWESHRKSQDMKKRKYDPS

[4] = target: T2, Polyadenylate-binding protein 1 (Homo sapiens, UniProt P11940); experiment: PABP1 MLLE–PAM2 interaction inhibitors, dose response, miRNA deadenylation inhibitor project, biochemical, fluorescence polarization, Cy5-PAM2 peptide, secondary (AID 602260); assay type: functional; conditions: read-out: IC50_Mean
T2 sequence (P11940 whole entry): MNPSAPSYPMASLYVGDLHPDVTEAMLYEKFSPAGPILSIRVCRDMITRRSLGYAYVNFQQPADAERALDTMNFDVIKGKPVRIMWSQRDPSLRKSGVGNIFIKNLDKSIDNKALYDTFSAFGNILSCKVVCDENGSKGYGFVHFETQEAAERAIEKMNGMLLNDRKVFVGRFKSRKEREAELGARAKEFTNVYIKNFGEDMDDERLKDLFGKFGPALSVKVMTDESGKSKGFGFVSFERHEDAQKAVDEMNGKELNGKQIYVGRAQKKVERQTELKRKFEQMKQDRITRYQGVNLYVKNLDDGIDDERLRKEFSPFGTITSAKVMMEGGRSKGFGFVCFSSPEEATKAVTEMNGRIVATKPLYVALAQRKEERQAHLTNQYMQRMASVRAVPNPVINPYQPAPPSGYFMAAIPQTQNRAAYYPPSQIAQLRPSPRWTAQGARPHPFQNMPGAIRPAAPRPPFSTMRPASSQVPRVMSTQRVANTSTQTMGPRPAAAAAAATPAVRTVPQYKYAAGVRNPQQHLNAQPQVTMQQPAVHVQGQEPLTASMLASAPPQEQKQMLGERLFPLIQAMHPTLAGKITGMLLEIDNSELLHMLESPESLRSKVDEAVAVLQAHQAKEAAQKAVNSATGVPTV

[5] = target: T2, Polyadenylate-binding protein 1; experiment: PABP1 MLLE–PAM2 binding inhibitor potency, dose response, biochemical, fluorescence polarization, FITC-PAM2 peptide (AID 602259); assay type: functional; conditions: read-out: IC50_Mean
[6] = target: T3, Heat shock factor protein 1 (Mus musculus, UniProt P38532); experiment: inhibition of MG132-induced HSE-luciferase signal, confirmation, cell-based, NIH3T3, luminescence, dose retest (AID 2382); assay type: functional;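 further: NIH3T3 fibroblasts with HSF1-driven luciferase reporter stressed by proteasome inhibitor MG132; luminescence from HSF1-driven luciferase expression after 8 hours of MG132 stress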
T3 sequence (P38532 whole entry): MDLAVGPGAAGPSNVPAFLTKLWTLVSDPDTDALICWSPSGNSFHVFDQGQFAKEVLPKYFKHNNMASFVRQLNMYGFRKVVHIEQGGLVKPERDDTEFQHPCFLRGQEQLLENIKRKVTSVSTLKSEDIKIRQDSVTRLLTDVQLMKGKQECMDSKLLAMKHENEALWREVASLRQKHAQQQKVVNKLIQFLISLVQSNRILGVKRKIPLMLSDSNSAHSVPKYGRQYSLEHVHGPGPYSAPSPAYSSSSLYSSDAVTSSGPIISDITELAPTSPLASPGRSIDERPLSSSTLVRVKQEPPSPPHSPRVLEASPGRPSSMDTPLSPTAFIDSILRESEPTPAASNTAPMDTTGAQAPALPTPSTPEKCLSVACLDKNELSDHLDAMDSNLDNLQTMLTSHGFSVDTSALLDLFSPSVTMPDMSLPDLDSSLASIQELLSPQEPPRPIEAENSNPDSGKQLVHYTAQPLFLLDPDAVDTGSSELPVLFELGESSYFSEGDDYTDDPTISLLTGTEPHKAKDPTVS

[7] = LGR2 antagonists, dose response, cell-based, HEK293, CRE-luciferase reporter, cherry pick, set 2 (AID 743343); assay type: functional;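 further: transfected cells were stimulated with diluted bursicon conditioned medium after compound addition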
[8] = MC4R antagonists, dose response, counter-screen for LGR2 antagonist project, cell-based, plate reader, cherry pick (AID 743444); assay type: functional;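 further: transfected HEK 293 cells stimulated with alpha-MSH peptide; potency of inhibitors of the alpha-MSH evoked signal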
[9] = Luminescence Cell-Based Dose Confirmation HTS to Identify Activators of 5'UTR Stem-Loop Driven Alpha-Synuclein mRNA Translation in H4 Neuroglioblastoma Cells. [Related pubchem assays: 1829 (Project Summary), 1814 (Primary HTS)]; assay type: functional
[10] = Luminescence Cell-Based Dose Response HTS to Identify Activators of Luciferase Translation or Activity in H4 […] Cells. [Related pubchem assays: 1829 (Project Summary), 1814 (Primary HTS)]; assay type: functional
[11] = tested on: H4; experiment: Luminescence Cell-Based Dose Response HTS to Identify Activators of 5'UTR Stem-Loop Driven Prion Protein mRNA Translation in H4 Neuroglioblastoma Cells. [Related pubchem assays: 1829 (Project Summary), 1814 (Primary HTS)]; assay type: functional; conditions: Homo sapiens
[12] = target: Large T antigen (Simian virus 40, UniProt P03070); assay type: functional, Betapolyomavirus macacae;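 further: Confirmatory-stage PubChem screen for compounds that inhibit SV40 T antigen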
Sequence of Large T antigen (P03070 whole entry): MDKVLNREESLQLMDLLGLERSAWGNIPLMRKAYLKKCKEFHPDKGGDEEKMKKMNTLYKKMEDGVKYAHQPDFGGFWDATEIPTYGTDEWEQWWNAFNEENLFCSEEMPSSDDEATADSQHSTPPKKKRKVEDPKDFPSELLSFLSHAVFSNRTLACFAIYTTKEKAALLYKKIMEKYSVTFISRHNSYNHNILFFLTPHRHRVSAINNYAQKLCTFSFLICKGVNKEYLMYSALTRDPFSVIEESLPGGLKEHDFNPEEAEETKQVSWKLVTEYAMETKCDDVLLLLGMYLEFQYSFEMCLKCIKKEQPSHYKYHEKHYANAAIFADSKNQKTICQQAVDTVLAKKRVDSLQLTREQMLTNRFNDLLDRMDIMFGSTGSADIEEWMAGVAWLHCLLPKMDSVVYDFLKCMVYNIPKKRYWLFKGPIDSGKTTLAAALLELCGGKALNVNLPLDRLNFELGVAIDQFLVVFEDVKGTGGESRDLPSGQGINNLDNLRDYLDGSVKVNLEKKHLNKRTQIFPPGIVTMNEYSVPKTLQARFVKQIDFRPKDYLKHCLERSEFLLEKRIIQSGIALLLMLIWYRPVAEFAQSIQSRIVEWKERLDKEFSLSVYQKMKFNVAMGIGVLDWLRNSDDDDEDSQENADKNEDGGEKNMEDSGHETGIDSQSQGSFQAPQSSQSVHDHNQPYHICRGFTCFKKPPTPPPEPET

[13] = target: T4, Corticotropin-releasing factor receptor 2/Corticotropin-releasing factor-binding protein (Homo sapiens, UniProt P24387+Q13324); experiment: Dose Response confirmation of uHTS hits for small molecule antagonists of the CRF-binding protein and CRF-R2 receptor complex.; assay type: functional; conditions: read-out: IC50_Mean
T4 sequence (Q13324 whole entry): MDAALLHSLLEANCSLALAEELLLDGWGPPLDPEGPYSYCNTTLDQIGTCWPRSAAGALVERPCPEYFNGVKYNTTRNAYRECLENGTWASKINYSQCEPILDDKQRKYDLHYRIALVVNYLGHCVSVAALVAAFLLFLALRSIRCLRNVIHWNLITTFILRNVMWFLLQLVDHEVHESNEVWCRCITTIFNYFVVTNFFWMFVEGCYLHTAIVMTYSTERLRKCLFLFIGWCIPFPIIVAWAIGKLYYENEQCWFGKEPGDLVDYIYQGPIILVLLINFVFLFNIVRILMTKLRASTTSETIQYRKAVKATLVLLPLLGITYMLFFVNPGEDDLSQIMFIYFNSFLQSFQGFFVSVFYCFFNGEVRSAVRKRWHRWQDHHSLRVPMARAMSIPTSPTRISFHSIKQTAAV
T4 sequence (P24387 whole entry): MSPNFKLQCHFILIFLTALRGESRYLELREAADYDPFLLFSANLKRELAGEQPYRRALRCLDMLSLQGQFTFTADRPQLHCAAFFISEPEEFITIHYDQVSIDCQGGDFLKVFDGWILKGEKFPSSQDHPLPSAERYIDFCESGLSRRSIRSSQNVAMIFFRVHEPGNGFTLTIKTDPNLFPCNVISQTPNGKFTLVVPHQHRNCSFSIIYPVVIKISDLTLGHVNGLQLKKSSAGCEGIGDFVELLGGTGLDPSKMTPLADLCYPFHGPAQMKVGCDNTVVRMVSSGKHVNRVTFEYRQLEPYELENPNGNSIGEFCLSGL

[14] = target: T4, Corticotropin-releasing factor receptor 2/Corticotropin-releasing factor-binding protein; experiment: activators of CRF receptor 2 with binding protein – uHTS hits, confirmation (AID 602473); assay type: functional; conditions: read-out: EC50_Mean
[15] = target: FAD-linked sulfhydryl oxidase ALR (Homo sapiens, UniProt P55789); experiment: inhibitors of human ALR sulfhydryl oxidase, dose response, biochemical, H2O2 detection, luminescence, cherry-pick (AID 493248)
Sequence of FAD-linked sulfhydryl oxidase ALR (P55789 whole entry): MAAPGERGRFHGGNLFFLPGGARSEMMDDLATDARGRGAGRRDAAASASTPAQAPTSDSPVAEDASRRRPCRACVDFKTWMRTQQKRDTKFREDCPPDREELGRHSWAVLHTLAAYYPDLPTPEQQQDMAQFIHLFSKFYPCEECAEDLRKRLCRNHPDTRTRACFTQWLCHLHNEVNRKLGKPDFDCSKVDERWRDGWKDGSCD

[16] = target: Glyceraldehyde-3-phosphate dehydrogenase (Homo sapiens, UniProt P04406)
Sequence of Glyceraldehyde-3-phosphate dehydrogenase (P04406 whole entry): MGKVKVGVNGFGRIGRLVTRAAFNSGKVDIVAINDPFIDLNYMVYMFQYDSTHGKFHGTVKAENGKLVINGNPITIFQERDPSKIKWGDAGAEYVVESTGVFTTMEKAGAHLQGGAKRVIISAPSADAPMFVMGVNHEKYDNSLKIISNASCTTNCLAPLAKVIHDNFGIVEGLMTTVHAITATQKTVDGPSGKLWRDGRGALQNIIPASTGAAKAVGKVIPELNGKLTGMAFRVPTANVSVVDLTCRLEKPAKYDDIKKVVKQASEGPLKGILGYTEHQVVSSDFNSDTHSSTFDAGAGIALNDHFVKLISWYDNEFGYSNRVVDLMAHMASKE

Structure (SMILES): CN(C)CCN(C)Cc1ccccc1Sc1cccc2ccccc12
- EC50 [1]: 12.8 µM (active)
- EC50 [2]: 10.6 µM (active)
- AC50 [3]: 11.2 µM (active)

Structure (SMILES): COc1ccc2c(c1)CCN1C2CCN2C(=O)CCC21 (stereo unspecified)
- IC50 [4]: > 66 µM (inactive)
- IC50 [5]: > 66 µM (inactive)

Structure (SMILES): CC(C)(C)c1ccc(C(=O)NCCOc2ccccc2F)cc1
- EC50 [6]: < 0.16 µM (active)
- AC50 [7]: 5.41 µM (active)
- AC50 [8]: 4.25 µM (active)

Structure (SMILES): C[C@@H]1[C@@H](Sc2ccccc2)CC(=O)O[C@@H]1c1ccc(-c2ccccc2)cc1
- EC50 [9]: > 120 µM (not active)
- EC50 [10]: > 120 µM (not active)
- EC50 [11]: > 120 µM (not active)
- IC50 [4]: > 66 µM (inactive)
- IC50 [5]: > 66 µM (inactive)

Structure (SMILES): N#Cc1cc2cc3c(cc2nc1NCCNC(=S)NCCCN1CCOCC1)OCO3
- AC50 [3]: 14.1 µM (active)

Structure (SMILES): FC(F)(F)c1cccc(NC(S)=Nc2cccc(N=C(S)Nc3cccc(C(F)(F)F)c3)n2)c1
- IC50 [4]: > 66 µM (inactive)
- IC50 [5]: > 66 µM (inactive)

Structure (SMILES): CN(C)c1ccc(NC(=O)COC(=O)Cn2nnc3ccccc32)cc1
- IC50 [12]: 6.63 µM (active)
- IC50 [13]: > 47.1 µM (inactive)
- EC50 [14]: > 53 µM (inactive)

Structure (SMILES): O=C(c1cc(-c2ccc(Cl)cc2Cl)on1)N1CCCC1
- AC50 [7]: 5.36 µM (active)
- AC50 [8]: 5.47 µM (active)

Structure (SMILES): COc1ccc(N)cc1NC(=O)CN1CCCC1
- AC50 [15]: 7.58 µM (active)
- AC50 [3]: 9.95 µM (active)

Structure (SMILES): COc1ccc(N=C(S)NC23CN4CN(CN(C4)C2)C3)c(OC)c1
- AC50 [3]: 16.3 µM (active)

Structure (SMILES): COc1cccc(/C=N/c2ccc(N3CCOCC3)cc2)c1O
- IC50 [12]: 4.14 µM (active)

Structure (SMILES): O=C(c1cc(-c2ccc(Cl)cc2Cl)n[nH]1)N(CCO)CCO
- IC50 [16]: > 10 µM (inconclusive)
